The subject of this experiment is Mouse monocyte/macrophage cell line, RAW 264.7. Nature of the experiment: Cholesterol efflux assay (3H-cholesterol, macrophage cell line). In kind it is cell-based. Conditions: RAW 264.7, 4 hrs incubation, 0.1% human serum albumin; for 4 h Cholesterol Efflux Emax: ABCA1-mediated efflux; for EC50: read-out: 4 h Cholesterol Efflux EC50, ABCA1-mediated efflux (CPT-cAMP induced minus non-induced).

From patent US20150344540A1, “NOVEL GLP-1 RECEPTOR AGONISTS WITH CHOLESTEROL EFFLUX ACTIVITY” (NOVO NORDISK A/S, priority 2012, published 2015) come the findings set out here.

Where a SMILES comes first, the peptide text is derived from it. [ ]: non-standard residue; d: D form. Aib = CC(C)(N)C(=O)O

By EC50 is commonly meant the concentration needed to bring the measured effect to its halfway point.

Turning to `CC[C@H](C)[C@H](NC(=O)[C@H](Cc1ccccc1)NC(=O)[C@H](CCC(=O)O)NC(=O)[C@H](CCCNC(=N)N)NC(=O)[C@@H](NC(=O)[C@H](C)NC(=O)[C@H](CCC(=O)O)NC(=O)CNC(=O)[C@H](CCC(=O)O)NC(=O)[C@H](CCSC)NC(=O)[C@H](CCC(N)=O)NC(=O)[C@H](CCCCN)NC(=O)[C@H](CO)NC(=O)[C@H](CC(C)C)NC(=O)[C@H](CC(=O)O)NC(=O)[C@H](CO)NC(=O)[C@@H](NC(=O)[C@H](Cc1ccccc1)NC(=O)[C@@H](NC(=O)CNC(=O)[C@H](CCC(=O)O)NC(=O)C(C)(C)NC(=O)[C@@H](N)Cc1c[nH]cn1)[C@@H](C)O)[C@@H](C)O)C(C)C)C(=O)N[C@@H](CCC(=O)O)C(=O)N[C@@H](Cc1c[nH]c2ccccc12)C(=O)N[C@@H](CC(C)C)C(=O)N[C@@H](CCCCN)C(=O)N[C@@H](CC(N)=O)C(=O)N[C@@H](CCCCN)C(=O)NC(C)(C)C(=O)N[C@@H](CC(C)C)C(=O)N[C@@H](CCC(=O)O)C(=O)N[C@@H](Cc1ccccc1)C(=O)N[C@@H](CC(C)C)C(=O)N[C@@H](CCC(=O)O)C(=O)N[C@@H](CC(C)C)C(=O)N[C@@H](CC(C)C)C(N)=O` [Compound 2, [Aib2, Glv16,Glu21,Lys29,Aib30,Leu31,Glu32,Phe33,Leu34,Glu35,Leu36,Leu371-Exendin-4-(1-37)-peptide amide] (H-H[Aib]EGTFTSDLSKQMEGEAVREFIEWLKNK[Aib]LEFLELL-NH2; N-terminus assumed), the “4 h Cholesterol Efflux Emax” value worked out at 83%.

In the case of `CC[C@H](C)[C@H](NC(=O)[C@H](Cc1ccccc1)NC(=O)[C@H](CCC(=O)O)NC(=O)[C@H](CCCCN)NC(=O)[C@@H](NC(=O)[C@H](C)NC(=O)[C@H](CCC(=O)O)NC(=O)CNC(=O)[C@H](CCC(=O)O)NC(=O)[C@H](CC(C)C)NC(=O)[C@H](Cc1ccc(O)cc1)NC(=O)[C@H](CO)NC(=O)[C@H](CO)NC(=O)[C@@H](NC(=O)[C@H](CC(=O)O)NC(=O)[C@H](CO)NC(=O)[C@@H](NC(=O)[C@H](Cc1ccccc1)NC(=O)[C@@H](NC(=O)CNC(=O)[C@H](CCC(=O)O)NC(=O)C(C)(C)NC(=O)[C@@H](N)Cc1c[nH]cn1)[C@@H](C)O)[C@@H](C)O)C(C)C)C(C)C)C(=O)N[C@@H](C)C(=O)N[C@@H](Cc1c[nH]c2ccccc12)C(=O)N[C@@H](CC(C)C)C(=O)N[C@H](C(=O)N[C@@H](CCC(=O)O)C(=O)N[C@@H](CCCCN)C(=O)N[C@@H](CC(C)C)C(=O)N[C@@H](CCCCN)C(=O)N[C@@H](CCC(=O)O)C(=O)N[C@@H](CC(C)C)C(=O)N[C@H](C(N)=O)C(C)C)C(C)C` [Compound 20, [Aib8,Glu23,Val25,Glu34,Lys35,Leu36,Lys37]-GLP-1-(7-37)-peptidyl-Glu-Leu-Val amide] (H-H[Aib]EGTFTSDVSSYLEGEAVKEFIAWLVEKLKELV-NH2; N-terminus assumed), the “4 h Cholesterol Efflux Emax” value was found to be 102% and the EC50 came to 560 nM.

Turning to `CC[C@H](C)[C@H](NC(=O)[C@H](Cc1ccccc1)NC(=O)[C@H](CCC(=O)O)NC(=O)[C@H](CCCCN)NC(=O)[C@H](C)NC(=O)[C@H](C)NC(=O)[C@H](CCC(N)=O)NC(=O)CNC(=O)[C@H](CCC(=O)O)NC(=O)[C@H](CC(C)C)NC(=O)[C@H](Cc1ccc(O)cc1)NC(=O)[C@H](CO)NC(=O)[C@H](CO)NC(=O)[C@@H](NC(=O)[C@H](CC(=O)O)NC(=O)[C@H](CO)NC(=O)[C@@H](NC(=O)[C@H](Cc1ccccc1)NC(=O)[C@@H](NC(=O)CNC(=O)[C@H](CCC(=O)O)NC(=O)C(C)(C)NC(=O)[C@@H](N)Cc1c[nH]cn1)[C@@H](C)O)[C@@H](C)O)C(C)C)C(=O)N[C@@H](C)C(=O)N[C@@H](Cc1c[nH]c2ccccc12)C(=O)N[C@@H](CC(C)C)C(=O)N[C@H](C(=O)N[C@@H](CCCCN)C(=O)NCC(=O)N[C@H](C(=O)NCC(=O)N[C@@H](CCC(=O)O)C(=O)N[C@@H](Cc1ccccc1)C(=O)N[C@@H](CC(C)C)C(N)=O)C(C)C)C(C)C` [Compound 75], the “4 h Cholesterol Efflux Emax” value stood at 68%.

Regarding `CC[C@H](C)[C@H](NC(=O)[C@H](Cc1ccccc1)NC(=O)[C@H](CCC(=O)O)NC(=O)[C@H](CCCNC(=N)N)NC(=O)[C@@H](NC(=O)[C@H](C)NC(=O)[C@H](CCC(=O)O)NC(=O)[C@H](CCC(=O)O)NC(=O)[C@H](CCC(=O)O)NC(=O)[C@H](CCSC)NC(=O)[C@H](CCC(N)=O)NC(=O)[C@H](CCCCN)NC(=O)[C@H](CO)NC(=O)[C@H](CC(C)C)NC(=O)[C@H](CC(=O)O)NC(=O)[C@H](CO)NC(=O)[C@@H](NC(=O)[C@H](Cc1ccccc1)NC(=O)[C@@H](NC(=O)CNC(=O)[C@H](CCC(=O)O)NC(=O)C(C)(C)NC(=O)[C@@H](N)Cc1c[nH]cn1)[C@@H](C)O)[C@@H](C)O)C(C)C)C(=O)N[C@@H](CCC(=O)O)C(=O)N[C@@H](Cc1c[nH]c2ccccc12)C(=O)N[C@@H](CC(C)C)C(=O)N[C@@H](CCCCN)C(=O)N[C@@H](CC(N)=O)C(=O)N[C@@H](CCCCN)C(=O)NCC(=O)N[C@@H](CC(C)C)C(=O)N[C@@H](CCC(=O)O)C(=O)N[C@@H](Cc1ccccc1)C(=O)N[C@@H](CC(C)C)C(=O)N[C@@H](CCC(=O)O)C(=O)N[C@@H](CC(C)C)C(=O)N[C@@H](CC(C)C)C(N)=O` [Compound 33, [Aib2,Glu21,Lys29,Leu31,Glu32,Phe33,Leu34,Glu35,Leu36,Leu371-Exendin-4-(1-37)-peptide amide] (H-H[Aib]EGTFTSDLSKQMEEEAVREFIEWLKNKGLEFLELL-NH2; N-terminus assumed), the “4 h Cholesterol Efflux Emax” value was determined as 87%.

On to `CC[C@H](C)[C@H](NC(=O)[C@H](Cc1ccccc1)NC(=O)[C@H](CCC(=O)O)NC(=O)[C@H](CCCCN)NC(=O)[C@@H](NC(=O)[C@H](C)NC(=O)[C@H](CCC(=O)O)NC(=O)CNC(=O)[C@H](CCC(=O)O)NC(=O)[C@H](CC(C)C)NC(=O)[C@H](Cc1ccc(O)cc1)NC(=O)[C@H](CO)NC(=O)[C@H](CO)NC(=O)[C@@H](NC(=O)[C@H](CC(=O)O)NC(=O)[C@H](CO)NC(=O)[C@@H](NC(=O)[C@H](Cc1ccccc1)NC(=O)[C@@H](NC(=O)CNC(=O)[C@H](CCC(=O)O)NC(=O)C(C)(C)NC(=O)[C@@H](N)Cc1c[nH]cn1)[C@@H](C)O)[C@@H](C)O)C(C)C)C(C)C)C(=O)N[C@@H](C)C(=O)N[C@@H](Cc1c[nH]c2ccccc12)C(=O)N[C@@H](CC(C)C)C(=O)N[C@H](C(=O)N[C@@H](CCCCN)C(=O)N[C@@H](CCCCN)C(=O)NC(C)(C)C(=O)N[C@@H](CCCCN)C(=O)N[C@@H](CCC(=O)O)C(=O)N[C@@H](Cc1ccccc1)C(=O)N[C@@H](CC(C)C)C(N)=O)C(C)C` [Compound 9, [Aib8,Glu23,Val25,Lys35,Aib36,Lys37]-GLP-1-(7-37)-peptidyl-Glu-Phe-Leu amide] (H-H[Aib]EGTFTSDVSSYLEGEAVKEFIAWLVKK[Aib]KEFL-NH2), for which the “4 h Cholesterol Efflux Emax” value is listed as 87%.

With `CC[C@H](C)[C@H](NC(=O)[C@H](Cc1ccccc1)NC(=O)[C@H](CCC(N)=O)NC(=O)[C@H](CCCCN)NC(=O)[C@@H](NC(=O)[C@H](C)NC(=O)[C@H](CCC(N)=O)NC(=O)CNC(=O)[C@H](CCC(=O)O)NC(=O)[C@H](CC(C)C)NC(=O)[C@H](Cc1ccc(O)cc1)NC(=O)[C@H](CO)NC(=O)[C@H](CO)NC(=O)[C@@H](NC(=O)[C@H](CC(=O)O)NC(=O)[C@H](CO)NC(=O)[C@@H](NC(=O)[C@H](Cc1ccccc1)NC(=O)[C@@H](NC(=O)CNC(=O)[C@H](CCC(=O)O)NC(=O)C(C)(C)NC(=O)[C@@H](N)Cc1c[nH]cn1)[C@@H](C)O)[C@@H](C)O)C(C)C)C(C)C)C(=O)N[C@@H](C)C(=O)N[C@@H](Cc1c[nH]c2ccccc12)C(=O)N[C@@H](CC(C)C)C(=O)N[C@H](C(=O)N[C@@H](CC(N)=O)C(=O)N[C@@H](CCCCN)C(=O)NC(C)(C)C(=O)N[C@@H](C)C(=O)N[C@@H](CCC(=O)O)C(=O)N[C@@H](Cc1ccccc1)C(=O)N[C@@H](CC(C)C)C(N)=O)C(C)C` [Compound 74] (H-H[Aib]EGTFTSDVSSYLEGQAVKQFIAWLVNK[Aib]AEFL-NH2), the “4 h Cholesterol Efflux Emax” value was found to be 91%.

Turning to `CC[C@H](C)[C@H](NC(=O)[C@H](Cc1ccccc1)NC(=O)[C@H](CCC(=O)O)NC(=O)[C@H](CCCCN)NC(=O)[C@@H](NC(=O)[C@H](C)NC(=O)[C@H](CCC(=O)O)NC(=O)CNC(=O)[C@H](CCC(=O)O)NC(=O)[C@H](CC(C)C)NC(=O)[C@H](Cc1ccc(O)cc1)NC(=O)[C@H](CO)NC(=O)[C@H](CO)NC(=O)[C@@H](NC(=O)[C@H](CC(=O)O)NC(=O)[C@H](CO)NC(=O)[C@@H](NC(=O)[C@H](Cc1ccccc1)NC(=O)[C@@H](NC(=O)CNC(=O)[C@H](CCC(=O)O)NC(=O)C(C)(C)NC(=O)[C@@H](N)Cc1c[nH]cn1)[C@@H](C)O)[C@@H](C)O)C(C)C)C(C)C)C(=O)N[C@@H](C)C(=O)N[C@@H](Cc1c[nH]c2ccccc12)C(=O)N[C@@H](CC(C)C)C(=O)N[C@H](C(=O)N[C@@H](CCC(=O)O)C(=O)N[C@@H](CCCCN)C(=O)N[C@H](C(=O)N[C@@H](CCCCN)C(=O)N[C@@H](CC(=O)O)C(=O)N[C@@H](Cc1ccccc1)C(=O)N[C@@H](CC(C)C)C(N)=O)C(C)C)C(C)C` [Compound 114, [Aib8,Glu23,Val25,Glu34,Lys35,Val36,Lys37]-GLP-1-(7-37)-peptidyl-Asp-Phe-Leu amide] (H-H[Aib]EGTFTSDVSSYLEGEAVKEFIAWLVEKVKDFL-NH2), the “4 h Cholesterol Efflux Emax” value was 103%.

Regarding `CC[C@H](C)[C@H](NC(=O)[C@H](Cc1ccccc1)NC(=O)[C@H](CCC(=O)O)NC(=O)[C@H](CCCCN)NC(=O)[C@@H](NC(=O)[C@H](C)NC(=O)[C@H](CCC(=O)O)NC(=O)CNC(=O)[C@H](CCC(=O)O)NC(=O)[C@H](CC(C)C)NC(=O)[C@H](Cc1ccc(O)cc1)NC(=O)[C@H](CO)NC(=O)[C@H](CO)NC(=O)[C@@H](NC(=O)[C@H](CC(=O)O)NC(=O)[C@H](CO)NC(=O)[C@@H](NC(=O)[C@H](Cc1ccccc1)NC(=O)[C@@H](NC(=O)CNC(=O)[C@H](CCC(=O)O)NC(=O)C(C)(C)NC(=O)[C@@H](N)Cc1c[nH]cn1)[C@@H](C)O)[C@@H](C)O)C(C)C)C(C)C)C(=O)N[C@@H](C)C(=O)N[C@@H](Cc1c[nH]c2ccccc12)C(=O)N[C@@H](CC(C)C)C(=O)N[C@H](C(=O)N[C@@H](CCC(=O)O)C(=O)N[C@@H](CCCCN)C(=O)NC(C)(C)C(=O)N[C@@H](CCCCN)C(=O)N[C@@H](CCC(=O)O)C(=O)N[C@@H](Cc1ccccc1)C(=O)N[C@@H](CC(C)C)C(=O)N[C@@H](CCC(=O)O)C(=O)N[C@@H](CCCCN)C(=O)N[C@H](C(=O)N[C@@H](CCCCN)C(=O)N[C@@H](CCC(=O)O)C(=O)N[C@@H](Cc1ccccc1)C(=O)O)C(C)C)C(C)C` [Compound 97], the “4 h Cholesterol Efflux Emax” value was found to be 125% and the EC50 turned out to be 410 nM.
